Measurements reported in US10988786B2, “Mutant 4-hydroxyphenylacetate 3-hydroxylases and uses thereof” (SYMRISE AG, priority 2015, dated 2021).

Legend:
[1] = biological target: T1, 4HPA3H (Escherichia coli, UniProt Q57160); assay: Whole-cell hydroxylation, cells expressing wild-type 4HPA3H; type: cell-based, E. coli; conditions: BL21(DE3) cells expressing wild-type 4HPA3H
T1 construct: expressed in transfected cells; host or cells: E. coli BL21(DE3)

[2] = biological target: T2, 4HPA3H-Y301F/S462A (SEQ ID NO:175) (Escherichia coli, UniProt Q57160, S462A/Y301F); assay: Solid phase-based cascade (Talon column), hydroxylation of naringenin to eriodictyol; type: biochemical, E. coli
T2 construct: made in house; host or cells: E. coli BL21(DE3)
Description: Stock solutions of […] and eriodictyol (10 mM each) in methanol were produced (for the structure of the compounds, see FIG. 9). They were diluted using acetonitrile for obtaining the desired concentrations (70, 110, 140, 210 and 280 μM). 10 μl of each sample was injected in to a HPLC machine and calibration curves were produced for both substances (data not shown).
First the catalysis was performed using 9 mU oxidase 4HPA3H in a 10 ml reaction comprising 1 ml 1M Tris/HCl, pH 7.5; 25 μl of a 10 mM NADH solution, 20 μl of a 5 mM FAD solution and 1 ml formate solution using 9 mU 4HPA3H-Y301F/S462A (SEQ ID NO:175) and 0.57 mU PrnF-reductase (SEQ ID NO:176) and 640 mU FDH (SEQ ID NO:177). Subsequently the enzymes were mixes, 100 μl 1M Tris/HCl solution, pH 7.5, was added and ddH2O (deionized, reverse osmosis) was added ad 2 ml. The enzyme solution was at least 5 times passed through a 1 ml Talon column with a flow rate of 0.1 ml/min^−1 to let the proteins bind to the column in a homogenous way. The evaluation of the complete binding of the proteins to the column material was measured via Bradford assay. Then, the column was washed once with 50 mM Tris/HCl, pH 7.5 (=basis buffer), and connected to a peristaltic pump.
The constituents of each reaction mixture were transferred to a suitable sterile flask, which was then connected to a peristaltic pump. During reaction, the reaction mixture was slightly stirred with the help of a magnetic stirrer. Using a flow rate of 1 ml/min, the system was washed with the basis buffer for 2 min and a control sample was taken. Only then, the substrate was added, here 200 μM naringenin (from a 10 mM stock solution in methanol). The substrate was pumped over the Talon column having the enzymes bound thereto with a flow rate of 1 ml/min at maximum. During the time range from 0-1310 min, the sample extraction was performed in samples of 35 μl each. Said samples were mixed with an equal volume of acetonitrile and were immediately injected into a HPLC device (20 μl each). The evaluation was conducted with the help of a calibration curve done at the beginning of the experiment and thereby measuring and calculating the peak areas (see FIG. 10).
The same assay was performed using 35 mU hydroxylase/1 ml column volume and the concentration of the co-enzymes for regeneration of the cofactor was increased equivalently.

[3] = biological target: two component non-P450 hydroxylase HpaBC (Escherichia coli, UniProt Q57160); conditions: native wild-type HpaBC; proceeds incomplete; cited from earlier work
[4] = biological target: T3, wild-type 4HPA3H (Escherichia coli, UniProt Q57160); assay: In vitro hydroxylation by the 4HPA3H/PrnF/FDH system, wild-type 4HPA3H; type: biochemical, E. coli; conditions: substrate 1 mM, purified wild-type 4HPA3H, optimized conditions
T3 construct: made in house; host or cells: E. coli BL21(DE3)
Description: (§1) Purified 4HPA3H (A) or variants (B) (Y301I depicted in white and Y301F/S462A depicted in black) were used for conversion of substrates (1 mM) under optimized conditions. The numbers correspond to substrates as explained in the legend for FIG. 1 above.
(§2) In order to develop an effective and low-cost enzyme system for in vitro hydroxylation, several parameters of the 4HPA3H reaction with respect to maximum reaction rate were optimized. By means of a spectrophotometric assay (Example 4 above), the inventors screened different buffer systems and optimized the concentration of the components p-coumaric acid (1 cf. FIG. 1), FAD, NADH and methanol, the incubation temperature and oxygen transfer (i.e. by variation of the shaking frequency) (optimum conditions are given in the Experimental Section). […] In contrast to the cofactors, the accompanying cofactor recycling redox enzymes PrnF and FDH were used in excess due to their high specific activity.
In accordance with the whole-cell transformation experiments (FIG. 3), product yields in the conversion by the wild-type 4HPA3H (FIG. 8A) ranged from high (1, 13, 15 cf. FIG. 1) or moderate (5 cf. FIG. 1) to low (9, 11 cf. FIG. 1), whereas ferulic acid 3 was not oxidized. […] However, in contrast to the experiments with life biocatalysts […] conversion of naringenin (7 cf. FIG. 1) by the wild-type 4HPA3H (25% yield) was observed (which might be explained by increased substrate availability). The hydroxycarbazole (11) was not accepted by the double variant Y301F/S462A, probably because of the high substrate concentration which seems to reflect strong […] inhibition—an effect which has previously been observed for other 4HPA3H enzymes. Noteworthy, HPLC analysis of the reaction products confirmed product specificity.

[5] = biological target: T4, 4HPA3H double variant Y301F/S462A (Escherichia coli, UniProt Q57160, S462A/Y301F); assay: In vitro hydroxylation by the 4HPA3H/PrnF/FDH system, variant Y301F/S462A; type: biochemical, E. coli; conditions: substrate 1 mM, purified Y301F/S462A
T4 construct: made in house; host or cells: E. coli BL21(DE3)
Description: as §1, §2
(§3) In accordance with the whole-cell transformation experiments (FIG. 3), product yields in the conversion by the wild-type 4HPA3H (FIG. 8A) ranged from high (1, 13, 15 cf. FIG. 1) or moderate (5 cf. FIG. 1) to low (9, 11 cf. FIG. 1), whereas ferulic acid 3 was not oxidized. […]

[6] = tested on: 4HPA3H/PrnF/FDH system; assay: Dependence of in vitro conversion of p-coumaric acid on FAD concentration; type: biochemical
Description: The reactions were to performed using the 4HPA3H/PrnF/FDH system.
as §2

[7] = tested on: 4HPA3H enzymes; conditions: previous study; cited from earlier work
[8] = Whole-cell hydroxylation, variants on substrates 5, 9 and 11; type: cell-based; conditions: whole cells
[9] = Whole-cell hydroxylation, variants compared with wild-type on well-accepted substrates; conditions: whole cells
Description: Substrates (200 μM) as shown in FIG. 1 were added to suspensions of bacterial cells expressing 4HPA3H or its single (A) and double variants (B). After incubation for 16 hours, catechols and residual substrates were extracted and analyzed by HPLC
Suspensions of the cells were tested for hydroxylation of a panel of eight phenolic compounds (FIG. 1) which belong to different classes of natural products: we included (I) phenolic acids and ketones such as p-coumaric acid (1), ferulic acid (3), rheosmin (15) and p-hydroxybenzoic acid (9), (II) polycyclic compounds such as the hydroxycoumarin umbelliferone (13), the stilbene resveratrol (5) and the flavonoid naringenin (7). […] 4HPA3H was also tested for conversion of 4-methoxycinnamic acid and 4-aminocinnamic acid.

[10] = Reduction of FAD with NADH by purified PrnF; type: biochemical; conditions: purified protein
Source text: In order to characterize 4HPA3H and its variants with respect to specific activity, the development of a convenient in vitro assay was necessary. As the enzymes rely on a reductase component which provides the cofactor FADH2 (see FIG. 2), the inventors focused on screening of a suitable reductase enzyme in the first step. The flavin reductase HpaC from E. coli—the endogenous partner of 4HPA3H—was not accessible due to formation of mainly insoluble protein under a variety of expression conditions (data not shown).

[11] = In vitro catechol complex formation assay (4HPA3H/PrnF/FDH), p-coumaric acid; type: biochemical; conditions: purified enzyme, optimized conditions, PrnF and FDH
Description: (A) Standard curve for the determination of caffeic acid (2 cf. FIG. 1). Mixtures of caffeic acid and p-coumaric acid (1) were incubated with FeCl3 and analyzed at 595 nm as described in the Experimental Section. (B) Time course of the oxidation of p-coumaric acid (1 cf. FIG. 1) by wild-type 4HPA3H. The enzymatic reaction was performed under optimized conditions, and produced caffeic acid (2 cf. FIG. 1) was detected as Fe^3+ complex. Data are the means±standard deviations obtained from three measurements.
(§4) For assaying 4HPA3H in microplate scale, 4HPA3H was incubated with PrnF, the substrate p-coumaric acid (1 cf. FIG. 1) and the formate dehydrogenase (FDH) from Candida boidinii. Similar as reported in our previous publication, this enzyme was introduced for regeneration of the costly cofactor NADH: NAD^+ formed during the reaction is recycled with sodium formate, yielding a sequential three-enzyme cascade for hydride transfer (FIG. 2). The conversion of p-coumaric acid (1 cf. FIG. 1) was measured spectrophotometrically by a previously established catechol complexation method (M. Dippe, B. Weigel, R. Heinke, T. Vogt, L. A. Wessjohann, 2014), which could be applied for quantitative determination of the product caffeic acid (see FIG. 6). […] However, similar to the data obtained from whole-cell biotransformations (see Example 2), these variants were beneficial in the conversion of ferulic acid (3 cf. FIG. 1), which is also reflected by comparably high conversion rates (4HPA3H-Y301F/S462A: 1.06±0.31 nmol min^−1 mg^−1, 4HPA3H-Y301I: 4.49±0.20 nmol min^−1 mg^−1).
(§5) In order to develop an effective and low-cost enzyme system for in vitro hydroxylation, several parameters of the 4HPA3H reaction with respect to maximum reaction rate were optimized. […]

[12] = In vitro assay (4HPA3H/PrnF/FDH), conversion of ferulic acid; type: biochemical; conditions: purified enzyme, PrnF and FDH
Description: as §4, §5

[13] = In vitro hydroxylation, mutant enzymes on challenging substrates 3 and 7; type: biochemical; conditions: substrate 1 mM, purified enzymes
Description: as §1, §2, §3

O=C1C[C@@H](c2ccc(O)cc2)Oc2cc(O)cc(O)c21 [Compound 7, naringenin]
acceptance as substrate [1]: not accepted | remaining concentration of naringenin ([2]; 9 mU enzyme/1 ml column, 200 μM naringenin, after 1290 min): 29.3 µM | remaining concentration of naringenin ([2]; 35 mU hydroxylase/1 ml column volume, after 240 min): 33.3 µM | conversion of naringenin to eriodictyol [3]: < 10%

Oc1ccc2c(c1)[nH]c1ccccc12 [Compound 11, 2-hydroxycarbazole]
product yield [4]: low | acceptance as substrate [5]: not accepted

Cc1cc2nc3c(=O)[nH]c(=O)nc-3n(C[C@H](O)[C@H](O)[C@H](O)COP(=O)(O)OP(=O)(O)OC[C@H]3O[C@@H](n4cnc5c(N)ncnc54)[C@H](O)[C@@H]3O)c2cc1C [FAD, flavin adenine dinucleotide]
effect of high concentrations on the redox system [6]: inhibitory

O=C(O)C=Cc1ccccc1 [cinnamic acid]
hydroxylation of substrate [7]: unable to hydroxylate

B1: 4HPA3H-Y301F: 4HPA3H single variant Y301F (protein, listed as Escherichia coli)
chain: MKPEDFRASTQRPFTGEEYLKSLQDGREIYIYGERVKDVTTHPAFRNAAASVAQLYDALHKPEMQDSLCWNTDTGSGGYTHKFFRVAKSADDLRQQRDAIAEWSRLSYGWMGRTPDYKAAFGCALGANPGFYGQFEQNARNWYTRIQETGLYFNHAIVNPPIDRHLPTDKVKDVYIKLEKETDAGIIVSGAKVVATNSALTHYNMIGFGSAQVMGENPDFALMFVAPMDADGVKLISRASYEMVAGATGSPYDYPLSSRFDENDAILVMDNVLIPWENVLIYRDFDRCRRWTMEGGFARMFPLQACVRLAVKLDFITALLKKSLECTGTLEFRGVQADLGEVVAWRNTFWALSDSMCSEATPWVNGAYLPDHAALQTYRVLAPMAYAKIKNIIERNVTSGLIYLPSSARDLNNPQIDQYLAKYVRGSNGMDHVQRIKILKLMWDAIGSEFGGRHELYEINYSGSQDEIRLQCLRQAQNSGNMDKMMAMVDRCLSEYDQDGWTVPHLHNNDDINMLDKLLK
modifications: 4HPA3H HpaB Y301F
notes: 4HPA3H single variant Y301F
conversion of the substrates 5, 9 and 11 [8]: superior | activity towards substrates 1, 13, 15 compared with wild-type enzyme [9]: comparably active

B2: PrnF: flavin reductase from Pseudomonas protegens Pf-5, cofactor recycling enzyme, SEQ ID NO:176 (protein, listed as Pseudomonas protegens)
chain: MNAATETKVHDLLDAEGRDVRDARELRNVLGQFATGVTVITTRTADGRNVGVTANSFSSLSLSPALVLWSLARTAPSLKAFCSASHFAINVLGAHQHHLSEQFARAAADKFAGVAHSYGKAGAPVLDDVVAVLVCRNVTQYEGGDHLIFIGEIEQYRYSGAEPLVFHAGQYRGLGSNRAESVLKHE
modifications: flavin reductase PrnF
activity in reduction of FAD with NADH [10]: 16,660±1,600 nmol min^−1 mg^−1

B3: 4HPA3H-Y301I: 4HPA3H single variant with isoleucine at position 301 (protein, listed as Escherichia coli)
chain: MKPEDFRASTQRPFTGEEYLKSLQDGREIYIYGERVKDVTTHPAFRNAAASVAQLYDALHKPEMQDSLCWNTDTGSGGYTHKFFRVAKSADDLRQQRDAIAEWSRLSYGWMGRTPDYKAAFGCALGANPGFYGQFEQNARNWYTRIQETGLYFNHAIVNPPIDRHLPTDKVKDVYIKLEKETDAGIIVSGAKVVATNSALTHYNMIGFGSAQVMGENPDFALMFVAPMDADGVKLISRASYEMVAGATGSPYDYPLSSRFDENDAILVMDNVLIPWENVLIYRDFDRCRRWTMEGGFARMIPLQACVRLAVKLDFITALLKKSLECTGTLEFRGVQADLGEVVAWRNTFWALSDSMCSEATPWVNGAYLPDHAALQTYRVLAPMAYAKIKNIIERNVTSGLIYLPSSARDLNNPQIDQYLAKYVRGSNGMDHVQRIKILKLMWDAIGSEFGGRHELYEINYSGSQDEIRLQCLRQAQNSGNMDKMMAMVDRCLSEYDQDGWTVPHLHNNDDINMLDKLLK
modifications: 4HPA3H HpaB Y301I
notes: 4HPA3H single variant with isoleucine at position 301
specific activity towards p-coumaric acid (1) [11]: 1.3 ± 0.6 nmol/min/mg | conversion rate of ferulic acid (3) [12]: 4.49 ± 0.20 nmol/min/mg | transformation of the challenging substrates 3 and 7 [13]: optimal
